In US20200038399A1, “FORMULATIONS, METHODS, KIT, AND DOSAGE FORMS FOR TREATING BACTERIAL INFECTION” (Motif BioSciences Inc., priority 2016, published 2020):
Each block holds one compound with its values, some of them ahead of it. Positions of bridges follow the written chain, without caps; N, C: chain ends. Non-standard residues stand in square brackets, D forms with d. Residues, ends and D or L forms follow the SMILES beside them. *: point of attachment. Ileψ(thiazoline)Cys = CC[C@H](C)[C@H](N)C1=N[C@H](C(=O)*)CS1; dOrn = NCCC[C@@H](N)C(=O)O

Assays:
[1] = test system: Haemophilus influenzae ATCC 49766; assay: checkerboard synergy assay with iclaprim; type: cell-based; conditions: antibiotic in combination with iclaprim; H. influenzae 49766
[2] = test system: Staphylococcus aureus ATCC 25923; assay: checkerboard synergy assay with iclaprim; type: cell-based; conditions: antibiotic in combination with iclaprim; S. aureus 25923
[3] = test system: Streptococcus pneumoniae ATCC 49619; assay: checkerboard synergy assay with iclaprim; type: cell-based; conditions: antibiotic in combination with iclaprim; S. pneumoniae 49619
[4] = test system: Klebsiella pneumoniae ATCC 33495; assay: checkerboard synergy assay with iclaprim; type: cell-based; conditions: antibiotic in combination with iclaprim; K. pneumoniae 33495
[5] = test system: Moraxella catarrhalis RA 21; assay: checkerboard synergy assay with iclaprim; type: cell-based; conditions: antibiotic in combination with iclaprim; M. catarrhalis RA 21
S. aureus 101 [6] = assay: checkerboard synergy assay with iclaprim; type: cell-based, Staphylococcus aureus; conditions: antibiotic in combination with iclaprim
S. aureus 101 [7] = assay: MIC determination; type: cell-based, Staphylococcus aureus; conditions: for MIC: Staphylococcus aureus, 101, 18 h, read-out: Minimum inhibitory concentrations (MIC)
Summary of the method: (§1)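 K. pneumoniae and S. aureus grew in cation-adjusted Mueller-Hinton broth in ambient air. H. influenzae used Haemophilus test medium (MHB, yeast extract, NAD, hematin) and M. catarrhalis used Brain Heart Infusion, both under 5% CO2.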

S. pneumoniae 1/1 [8] = assay: checkerboard synergy assay with iclaprim; type: cell-based, Streptococcus pneumoniae; conditions: antibiotic in combination with iclaprim
S. pneumoniae 1/1 [9] = assay: MIC determination; type: cell-based, Streptococcus pneumoniae; conditions: S. pneumoniae 1/1, 18 hours at 37° C., 5% CO2; for MIC: Streptococcus pneumoniae, read-out: Minimum inhibitory concentrations (MIC)
[10] = test system: Haemophilus influenzae ATCC 49766; assay: MIC determination; type: cell-based; conditions: H. Influenza 49766, 18 hours at 37° C., 5% CO2; for MIC: Haemophilus influenzae, ATCC49766, read-out: Minimum inhibitory concentrations (MIC)
Summary of the method: as §1

[11] = test system: Staphylococcus aureus ATCC 25923; assay: MIC determination; type: cell-based; conditions: S. aureus 25923, 18 hours at 37° C.; for MIC: Staphylococcus aureus, ATCC25923, read-out: Minimum inhibitory concentrations (MIC)
Summary of the method: as §1

[12] = test system: Streptococcus pneumoniae ATCC 49619; assay: MIC determination; type: cell-based; conditions: S. pneumoniae 49619, 18 hours at 37° C., 5% CO2; for MIC: Streptococcus pneumoniae, ATCC49619, read-out: Minimum inhibitory concentrations (MIC)
[13] = test system: Klebsiella pneumoniae ATCC 33495; assay: MIC determination; type: cell-based; conditions: K. pneumonia 33495, 18 hours at 37° C.; for MIC: Klebsiella pneumoniae, ATCC33495, read-out: Minimum inhibitory concentrations (MIC)
Summary of the method: as §1

[14] = test system: Moraxella catarrhalis RA 21; assay: MIC determination; type: cell-based; conditions: M. catarrhalis RA 21, 18 hours at 37° C., 5% CO2; for MIC: Moraxella catarrhalis, RA21, read-out: Minimum inhibitory concentrations (MIC)
Summary of the method: as §1

Compound: CO[C@@H]1[C@@H](OC(N)=O)[C@@H](O)[C@H](Oc2ccc3c(O)c(NC(=O)c4ccc(O)c(CC=C(C)C)c4)c(=O)oc3c2C)OC1(C)C [Novobiocin]
Con (Conclusion) [1]: Ind (Indifference (Ind))
Σ FIC [1]: 1.03-1.50
Σ FIC [2]: 1.02-1.50
Σ FIC [3]: 0.75-1.13
Con (Conclusion) [4]: Ind (Indifference (Ind))
Σ FIC [4]: 1.00-1.25
Con (Conclusion) [5]: Ind (Indifference (Ind))
Σ FIC [5]: 1.00-1.05
Σ FIC (S. aureus 101 [6]): 1.03-1.50
MIC (S. aureus 101 [7]): 0.25 µg/mL
Σ FIC (S. pneumoniae 1/1 [8]): 1.03-1.50
MIC (S. pneumoniae 1/1 [9]): 4 µg/mL
MIC [10]: 0.25 µg/mL
MIC [11]: 0.5 µg/mL
MIC [12]: 2 µg/mL
MIC [13]: 128 µg/mL
MIC [14]: 0.25 µg/mL

Compound: CC[C@H]1OC(=O)[C@H](C)[C@@H](O[C@H]2C[C@@](C)(OC)[C@@H](O)[C@H](C)O2)[C@H](C)[C@@H](O[C@@H]2O[C@H](C)C[C@H](N(C)C)[C@H]2O)[C@](C)(O)C[C@@H](C)C(=O)[C@H](C)[C@@H](O)[C@]1(C)O [Erythromycin]
Con (Conclusion) [1]: Ad (Additivity (Ad))
Σ FIC [1]: 0.75-1.00
Σ FIC [2]: 1.13-1.50
Σ FIC [3]: 1.06-1.50
Con (Conclusion) [4]: Ad (Additivity (Ad))
Con (Conclusion) [5]: Ind (Indifference (Ind))
Σ FIC [5]: 1.06-1.50
Σ FIC (S. aureus 101 [6]): 1.01-1.50
MIC (S. aureus 101 [7]): > 128 µg/mL
Σ FIC (S. pneumoniae 1/1 [8]): 1.06-1.50
MIC (S. pneumoniae 1/1 [9]): 0.125 µg/mL
MIC [10]: 8 µg/mL
MIC [11]: 0.5 µg/mL
MIC [12]: 0.125 µg/mL
MIC [13]: 128 µg/mL
MIC [14]: 0.125 µg/mL

MIC (S. aureus 101 [7]): 32 µg/mL
MIC (S. pneumoniae 1/1 [9]): 8 µg/mL
MIC [10]: > 128 µg/mL
MIC [11]: > 128 µg/mL
MIC [12]: 32 µg/mL
MIC [13]: > 128 µg/mL
MIC [14]: 8 µg/mL
Compound: CC[C@H](C)[C@H](N)C1=N[C@H](C(=O)N[C@@H](CC(C)C)C(=O)N[C@H](CCC(=O)O)C(=O)N[C@H](C(=O)N[C@H]2CCCCNC(=O)[C@H](CC(N)=O)NC(=O)[C@@H](CC(=O)O)NC(=O)[C@H](Cc3cnc[nH]3)NC(=O)[C@@H](Cc3ccccc3)NC(=O)[C@H]([C@@H](C)CC)NC(=O)[C@@H](CCCN)NC2=O)[C@@H](C)CC)CS1 [Bacitracin] ({Ileψ(thiazoline)Cys}-L[dE]IK[dOrn]I[dF]H[dD]N; lactam 4-C)
Con (Conclusion) [1]: Ind (Indifference (Ind))
Σ FIC [1]: 1.01-1.50
Σ FIC [2]: 0.74-1.13
Σ FIC [3]: 0.75-1.13
Con (Conclusion) [4]: Ind (Indifference (Ind))
Σ FIC [4]: 1.01-1.50
Con (Conclusion) [5]: Ad (Additivity (Ad))
Σ FIC [5]: 0.56-1.25
Σ FIC (S. aureus 101 [6]): 0.75-1.13
Σ FIC (S. pneumoniae 1/1 [8]): 0.51-1.06

Compound: CC1(C)S[C@@H]2[C@H](NC(=O)Cc3ccccc3)C(=O)N2[C@H]1C(=O)O [Penicillin G]
Con (Conclusion) [1]: Ind (Indifference (Ind))
Σ FIC [1]: 1.03-1.50
Con (Conclusion) [2]: Ind (Indifference (Ind))
Σ FIC [2]: 1.00-1.25
Con (Conclusion) [3]: Ind (Indifference (Ind))
Σ FIC [3]: 1.00-1.25
Con (Conclusion) [4]: Ad (Additivity (Ad))
Σ FIC [4]: 0.52-1.25
Con (Conclusion) [5]: Ind (Indifference (Ind))
Σ FIC [5]: 1.13-1.50
Con (Conclusion) (S. aureus 101 [6]): Ind (Indifference (Ind))
Σ FIC (S. aureus 101 [6]): 1.00-1.25
Minimum inhibitory concentrations (MIC) (S. aureus 101 [7]; S. aureus 101, 18 hours at 37° C.): 128 µg/mL
Con (Conclusion) (S. pneumoniae 1/1 [8]): Ad (Additivity (Ad))
Σ FIC (S. pneumoniae 1/1 [8]): 0.75-1.13
Minimum inhibitory concentrations (MIC) (S. pneumoniae 1/1 [9]): 4 µg/mL
Minimum inhibitory concentrations (MIC) [10]: 0.25 µg/mL
Minimum inhibitory concentrations (MIC) [11]: 0.031 µg/mL
Minimum inhibitory concentrations (MIC) [12]: 0.25 µg/mL
Minimum inhibitory concentrations (MIC) [13]: 128 µg/mL
Minimum inhibitory concentrations (MIC) [14]: 16 µg/mL
